The assay concerns the target T1, EP4 receptor (Homo sapiens, UniProt P35408).
T1 construct: host or cells: HEK 293(ebna) according to the general protocol; cells used by the contract laboratory not given
The assay is described as follows: EP4 receptor binding assay (inhibition of [3H]PGE2 binding, MSD Pharma Service). The settings on record: 1 nM [3H] PGE2, Human recombinant Chem-1 cells; for inhibition at 0.002 µM: Tested Concentration 2 nM; for inhibition at 0.01 µM: Tested Concentration 10 nM. As for the experimental part: Transfected HEK 293(ebna) cells are maintained in culture, harvested and membranes are prepared by differential centrifugation, following lysis of the cells in the presence of protease inhibitors, for use in receptor binding assays. Prostanoid receptor binding assays (for DP1, DP2 (CRTH2), EP1, EP2, EP3-III, EP4, FP, IP, and TP) are performed in 10 mM MES/KOH (pH 6.0) (EPs, FP and TP) or 10 mM HEPES/KOH (pH 7.4) (DPs and IP), containing 1 mM EDTA, 2.5-30 mM divalent cation and the appropriate radioligand. Synthetic compounds are added in dimethylsulfoxide which is kept constant at 1% (v/v) in all incubations. The reaction is initiated by addition of membrane protein. Non-specific binding is determined in the presence of 10 μM of the corresponding non-radioactive prostanoid. Incubations are conducted for 60-90 min at room temperature or 30° C. and terminated by rapid filtration. Specific binding is calculated by subtracting non specific binding from total binding. The residual specific binding at each ligand concentration is calculated and expressed as a function of ligand concentration in order to construct sigmoidal concentration-response curves. The binding affinity of the compounds is determined by calculating the equilibrium inhibition constant (Ki) from the equation Ki=InPt/1[radioligand]/Kd where Kd is the equilibrium dissociation constant for the radioligand:receptor interaction and InPt is the inflection point of the dose-response curves.
EP4 receptor binding assays were performed at MSD Pharma Service in Taiwan under the following assay conditions: […]

T1 sequence (P35408 whole entry): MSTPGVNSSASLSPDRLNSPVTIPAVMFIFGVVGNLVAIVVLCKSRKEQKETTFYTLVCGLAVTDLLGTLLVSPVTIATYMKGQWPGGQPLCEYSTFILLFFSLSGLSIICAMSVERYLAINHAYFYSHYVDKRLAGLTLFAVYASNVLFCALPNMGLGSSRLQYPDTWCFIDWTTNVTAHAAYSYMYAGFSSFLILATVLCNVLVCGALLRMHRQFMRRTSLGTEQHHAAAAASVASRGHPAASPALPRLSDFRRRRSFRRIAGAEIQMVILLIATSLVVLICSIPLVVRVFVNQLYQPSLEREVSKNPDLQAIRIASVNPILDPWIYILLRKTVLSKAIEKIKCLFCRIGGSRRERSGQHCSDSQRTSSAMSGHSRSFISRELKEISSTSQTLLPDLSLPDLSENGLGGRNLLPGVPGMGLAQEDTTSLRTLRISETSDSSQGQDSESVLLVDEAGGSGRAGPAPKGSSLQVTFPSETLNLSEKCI

Consider `Cc1sc2ccn(Cc3ccc(C(F)(F)F)cc3)c2c1C(=O)NC1(c2ccc(C(=O)O)cc2)CC1`, for which the inhibition at 0.002 µM came out at 93%.
Turning to `CC(NC(=O)c1csc2ccn(Cc3ccc(C(F)(F)F)cc3)c12)c1ccc(C(=O)O)cc1` (centres unmarked), the inhibition at 0.01 µM was determined as 87%.
In the case of `O=C(O)c1ccc(C2(NC(=O)c3cccc4c3N(Cc3ccc(C(F)(F)F)cc3)C(=O)C4)CC2)cc1`, the inhibition at 0.01 µM is 83%.
`Cc1sc2ccn(Cc3ccc(C(F)(F)F)cc3)c2c1C(=O)NC(C)c1ccc(C(=O)O)cc1` (centres unmarked): the inhibition at 0.01 µM stood at 85%.
In the case of `O=C(O)c1ccc(C2(NC(=O)c3csc4ccn(Cc5ccc(C(F)(F)F)cc5)c34)CC2)cc1`, the inhibition at 0.002 µM was 88%.

The values above are taken from patent US8404736B2, “Heterocyclic amide derivatives as EP4 receptor antagonists” (Beta Pharma Canada Inc., priority 2008, dated 2013).
